Non-standard residues stand in square brackets, D forms with d. Residues, ends and D or L forms follow the SMILES beside them. No end group written: not given here. Aib = CC(C)(N)C(=O)O
Assays:
[1] = Circular dichroism helicity determination; format: physicochemical; conditions: percent helicity; for He (%) TFE: 5 μM peptide, 90% vol TFE; for He (%) TFE / He (%) SUVs: 37° C.; for He (%) free: unbound peptide 5 μM in 5 mM phosphate buffer, pH 7.4, 37° C.; for He (%) SUVs: peptide-SUV complexes (20:1 EPC:Chol., Ri=30 and Ri=50); for He (%) mics: peptide-micelle complexes, Ri=100, 37° C.
Outline: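 Far-UV CD (190–260 nm) at 37° C on 5 μM peptide in 5 mM phosphate pH 7.4, free, with EPC:Chol 20:1 SUVs (Ri 30 or 50), lysophosphatidylcholine micelles (Ri 100) or 90% TFE. Spectra converted to molar ellipticity per residue; helicity from 222 nm ellipticity or CONTIN fitting to reference spectra, ±5%.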

[2] = biological target: T1, LCAT (purified from human plasma) (Homo sapiens, UniProt P04180); assay: LCAT activation assay; format: biochemical; conditions: LCAT activation as compared with native human ApoA-I (= 100%), equivalent masses
T1 construct: from tissue; host or cells: human plasma
T1 sequence (P04180 25-440): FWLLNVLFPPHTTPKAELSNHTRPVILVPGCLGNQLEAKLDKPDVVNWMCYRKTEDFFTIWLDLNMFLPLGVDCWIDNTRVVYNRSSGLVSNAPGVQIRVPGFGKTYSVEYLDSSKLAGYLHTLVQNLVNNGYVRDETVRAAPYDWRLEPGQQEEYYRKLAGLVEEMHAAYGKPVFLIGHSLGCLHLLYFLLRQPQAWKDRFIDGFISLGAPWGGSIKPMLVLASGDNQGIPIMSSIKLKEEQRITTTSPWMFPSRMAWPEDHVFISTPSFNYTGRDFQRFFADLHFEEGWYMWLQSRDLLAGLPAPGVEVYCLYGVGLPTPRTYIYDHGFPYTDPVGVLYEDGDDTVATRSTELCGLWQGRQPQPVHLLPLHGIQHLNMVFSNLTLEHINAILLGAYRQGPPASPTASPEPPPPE
Outline: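 Activity was expressed as percentage conversion of radiolabelled cholesterol to cholesteryl ester, normalised to native ApoA-I as 100%. LCAT purified from human plasma was added to peptide-preincubated EPC or POPC/cholesterol (20:1) small unilamellar vesicles at pH 7.4. Specific activity is the peptide concentration reaching the conversion plateau at a fixed timepoint.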

| Compound | He (%) TFE [1] [%] | He (%) free [1] [%] | He (%) SUVs [1] [%] | He (%) mics [1] [%] | ACTIVITY (%) LCAT [2] [%] |
| --- | --- | --- | --- | --- | --- |
| CC(C)C[C@@H](NC(=O)[C@@H](C)NC(=O)[C@@H](CCC(=O)O)NC(=O)[C@@H](CC(C)C)NC(=O)C(C)(C)NC(=O)[C@@H](CCC(=O)O)NC(=O)[C@@H](CC(N)=O)NC(=O)[C@@H](CC(C)C)NC(=O)[C@@H](CC(C)C)NC(=O)[C@@H](CCC(=O)O)NC(=O)[C@@H](CCCNC(=N)N)NC(=O)[C@@H](Cc1ccccc1)NC(=O)[C@@H](CC(C)C)NC(=O)[C@@H](CC(=O)O)NC(=O)[C@@H](CC(C)C)NC(=O)[C@H](NC(=O)[C@H]1CCCN1)C(C)C)C(=O)N[C@H](CCCCN)C(=O)N[C@H](CCC(N)=O)C(=O)N[C@H](CCCCN)C(=O)N[C@H](CC(C)C)C(=O)N[C@H](CCCCN)C(=O)O [compound 96, pvldlfrellneXlealkqklk] (H-[dP][dV][dL][dD][dL][dF][dR][dE][dL][dL][dN][dE][Aib][dL][dE][dA][dL][dK][dQ][dK][dL][dK]-OH) | 81 | 52 | 63 | 85 | 5 |
| PVLDLFRELLNELLEALKQ [compound 60] | 84 | 39 | 66 | 83 | 16 |
| PVLELFENLLERLLDWLQKKLK [compound 160] | 61 | 65 | 75 | 73 | 28 |
| PVLDEFREKLNEPLEALKQKLK [compound 113] |  | 6 |  | 22 | 0 |
| CC(C)C[C@H](NC(=O)[C@H](CCCCN)NC(=O)[C@H](CCC(N)=O)NC(=O)[C@H](CCCCN)NC(=O)[C@H](CC(C)C)NC(=O)[C@@H](N)CCCCN)C(=O)N[C@@H](C)C(=O)N[C@@H](CCC(=O)O)C(=O)N[C@@H](CC(C)C)C(=O)N[C@@H](CC(C)C)C(=O)N[C@@H](CCC(=O)O)C(=O)N[C@@H](CC(N)=O)C(=O)N[C@@H](CC(C)C)C(=O)N[C@@H](CC(C)C)C(=O)N[C@@H](CCC(=O)O)C(=O)N[C@@H](CCCNC(=N)N)C(=O)N[C@@H](Cc1ccccc1)C(=O)N[C@@H](CC(C)C)C(=O)N[C@@H](CC(=O)O)C(=O)N[C@@H](CC(C)C)C(=O)N[C@H](C(=O)N1CCC[C@H]1C(=O)O)C(C)C [compound 99] | 80 | 72 | 80 | 88 | 2 |
| CC(C)C[C@H](NC(=O)[C@H](C)NC(=O)[C@H](CCC(=O)O)NC(=O)[C@H](CC(C)C)NC(=O)C(C)(C)NC(=O)[C@H](CCC(=O)O)NC(=O)[C@H](CC(N)=O)NC(=O)[C@H](CC(C)C)NC(=O)[C@H](CCCCN)NC(=O)[C@H](CCC(=O)O)NC(=O)[C@H](CCCNC(=N)N)NC(=O)[C@H](Cc1ccccc1)NC(=O)[C@H](CCC(=O)O)NC(=O)[C@H](CC(=O)O)NC(=O)[C@H](CC(C)C)NC(=O)[C@@H](NC(=O)[C@@H]1CCCN1)C(C)C)C(=O)N[C@@H](CCCCN)C(=O)N[C@@H](CCC(N)=O)C(=O)N[C@@H](CCCCN)C(=O)N[C@@H](CC(C)C)C(=O)N[C@@H](CCCCN)C(=O)O [compound 45, PVLDEFREKLNEXLEALKQKLK] (H-PVLDEFREKLNE[Aib]LEALKQKLK-OH) | 86 | 24 | 25 | 84 | 24 |
| PVLDLFRELLEELKQKLK [compound 210] | 53 | 20 | 37 | 63 | 46 |
| CC(C)C[C@@H](NC(=O)[C@@H](C)NC(=O)[C@@H](CCC(=O)O)NC(=O)[C@@H](CC(C)C)NC(=O)[C@@H](CC(C)C)NC(=O)[C@@H](CCC(=O)O)NC(=O)[C@@H](CC(N)=O)NC(=O)[C@@H](CC(C)C)NC(=O)[C@@H](CC(C)C)NC(=O)[C@@H](CCC(=O)O)NC(=O)[C@@H](CCCNC(=N)N)NC(=O)[C@@H](Cc1ccccc1)NC(=O)[C@@H](CC(C)C)NC(=O)[C@@H](CC(=O)O)NC(=O)[C@@H](CC(C)C)NC(=O)[C@H](NC(=O)[C@H]1CCCN1)C(C)C)C(=O)N[C@H](CCCCN)C(=O)N[C@H](CCC(N)=O)C(=O)N[C@H](CCCCN)C(=O)N[C@H](CC(C)C)C(=O)N[C@H](CCCCN)C(=O)O [compound 100, pvldlfrellnellealkqklk] | 98 | 83 |  | 92 | 2 |
| PVLDLFRELLEELQKKLK [compound 220] | 64 | 27 | 54 | 64 | 22 |
| PAADAFREAANEAAEAAKQKAK [compound 105] | 65 | 29 | 32 | 28 | 1 |
| PVLDLFRELLNELWEALKQKLK [compound 28] | 81 | 82 | 90 | 98 | 40 |
| PVLDWFRELLNELLEALKQKLK [compound 35] |  | 49 | 61 | 59 | 31 |
| CC(C)C[C@H](NC(=O)[C@H](C)NC(=O)[C@H](CCC(=O)O)NC(=O)[C@H](CC(C)C)NC(=O)C(C)(C)NC(=O)[C@H](CCC(=O)O)NC(=O)[C@H](CC(N)=O)NC(=O)[C@H](CC(C)C)NC(=O)[C@H](CCCCN)NC(=O)[C@H](CCC(=O)O)NC(=O)[C@H](CCCNC(=N)N)NC(=O)[C@H](Cc1ccccc1)NC(=O)[C@H](CC(C)C)NC(=O)[C@H](CC(=O)O)NC(=O)[C@H](CC(C)C)NC(=O)[C@@H](NC(=O)[C@@H]1CCCN1)C(C)C)C(=O)N[C@@H](CCCCN)C(=O)N[C@@H](CCC(N)=O)C(=O)N[C@@H](CCCCN)C(=O)N[C@@H](CC(C)C)C(=O)N[C@@H](CCCCN)C(=O)O [compound 46, PVLDLFREKLNEXLEALKQKLK] (H-PVLDLFREKLNE[Aib]LEALKQKLK-OH) | 85 | 30 | 58 | 86 | 23 |
| Ac-PVLDLFRELLEEWKQKLK-NH2 [compound 215] | 68 | 28 | 53 | 63 | 38 |
| Ac-EWLKAFYEKVLEKLKELF-NH2 [peptide 238, reference compound] | 58 | 49 | 60 | 72 | 19 |
